What was measured:
Format in all cases: in vivo
[1] = system: transplanted Oryza sativa; experiment: Test Example 1: effect on crop, application before weed generation in submerged conditions; conditions: Seventeenth Table; for a: transplanted Oryza sativa (effect on crop grade): Application herbicide amount 320 g/ha
How it was run: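 Pre-emergence water-surface application under 4 cm flooding, same day as sowing, with rice transplanted at 2.5 leaf stage. Dose given as g/ha. Plants grown at 25° C. to 30° C. and rated three weeks later on a 0 (≤5%) to 5 (≥90%) herbicidal-ratio scale.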

[2] = system: Echinochloa oryzacola Vasing.; experiment: Test Example 2: herbicidal activity, application during weed generation in submerged conditions; conditions: Eighteenth Table
How it was run: (§1)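 Scored three weeks post-application on a 0–5 scale (5: ≥90% herbicidal ratio, almost withered; 0: ≤5%). Plants raised from mixed-sown seed in submerged alluvial soil (4 cm water), 25–30 °C greenhouse; water-diluted emulsion applied onto water surface at one- to two-leaf stage, dose in g/ha.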

[3] = system: Monochoria vaginalis; experiment: as above; conditions: Eighteenth Table; application herbicide amount 320 g/ha
How it was run: as §1

[4] = system: Cyperus difformis; experiment: Test Example 3: herbicidal effect by application to foliage (Wagner pot, water depth 0.1-0.5 cm); conditions: Nineteenth Table; application to foliage; application herbicide amount 320 g/ha
How it was run: (§2)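 A small sprayer delivered the diluted emulsion uniformly to foliage at the chosen rate in g/ha, 14 days after sowing in Wagner pots held at 25–30 °C. Outcome: 0–5 herbicidal-ratio score read three weeks post-treatment.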

[5] = system: Echinochloa crus-galli var. crus-galli; experiment: as above; conditions: Nineteenth Table, application to foliage
How it was run: as §2

[6] = system: Leptochloa chinensis; experiment: as above; conditions: Nineteenth Table, application to foliage
How it was run: as §2

[7] = system: directly sowed Oryza sativa; experiment: Test Example 3: effect on crop by application to foliage (Wagner pot, water depth 0.1-0.5 cm); conditions: Nineteenth Table, application to foliage
How it was run: as §2

[8] = system: Scirpus juncoides; experiment: Test Example 2: herbicidal activity, application during weed generation in submerged conditions; conditions: Eighteenth Table
How it was run: as §1

[9] = application herbicide amount 320 g/ha
[10] = application herbicide amount 260 g/ha

Compound | a: transplanted Oryza sativa (effect on crop grade) [1] | A (Echinochloa oryzicola Vasing.) herbicidal ratio grade [2, 9] | C (Monochoria vaginalis) herbicidal ratio grade [3] | E (herbicidal effect grade) [4] | H (herbicidal effect grade) [5, 9] | D (herbicidal effect grade) [6, 9] | b (effect on crop grade) [7, 9] | B (Scirpus juncoides) herbicidal ratio grade [8, 9] | a (transplanted Oryza sativa) effect on crop grade [1, 9] | a (transplanted Oryza sativa) effect on crop grade [1, 10] | A (Echinochloa oryzicola Vasing.) herbicidal ratio grade [2, 10] | B (Scirpus juncoides) herbicidal ratio grade [8, 10] | H (herbicidal effect grade) [5, 10] | D (herbicidal effect grade) [6, 10] | b (effect on crop grade) [7, 10]
CC(C)Nc1nnc2c(C(=O)Nc3nnnn3C)ccc(C(F)(F)F)n12 [2-066] | 3 (Herbicidal ratio of 40% or more and less than 70%) | 3 (Herbicidal ratio of 40% or more and less than 70%) | 3 (Herbicidal ratio of 40% or more and less than 70%) | 5 (Herbicidal ratio of 90% or more (almost completely withered)) | 5 (Herbicidal ratio of 90% or more (almost completely withered)) | 5 (Herbicidal ratio of 90% or more (almost completely withered)) | 3 (Herbicidal ratio of 40% or more and less than 70%) | – | – | – | – | – | – | – | –
O=C(Nc1nnco1)c1ccc(C(F)(F)F)n2c(SC3CCCC3)nnc12 [1-155] | 0 (Herbicidal ratio of 5% or less (almost no effect)) | 1 (Herbicidal ratio of 5% or more and less than 20%) | 0 (Herbicidal ratio of 5% or less (almost no effect)) | 5 (Herbicidal ratio of 90% or more (almost completely withered)) | 1 (Herbicidal ratio of 5% or more and less than 20%) | 2 (Herbicidal ratio of 20% or more and less than 40%) | – | 2 (Herbicidal ratio of 20% or more and less than 40%) | – | – | – | – | – | – | –
CN(CCC#N)c1nnc2c(C(=O)Nc3nnnn3C)ccc(C(F)(F)F)n12 [2-095] | 5 (Herbicidal ratio of 90% or more (almost completely withered)) | 4 (Herbicidal ratio of 70% or more and less than 90%) | 5 (Herbicidal ratio of 90% or more (almost completely withered)) | 5 (Herbicidal ratio of 90% or more (almost completely withered)) | 5 (Herbicidal ratio of 90% or more (almost completely withered)) | 5 (Herbicidal ratio of 90% or more (almost completely withered)) | – | 5 (Herbicidal ratio of 90% or more (almost completely withered)) | – | – | – | – | – | – | –
COC(=O)Cn1nnnc1NC(=O)c1ccc(C(F)(F)F)n2c(C(C)C)nnc12 [2-046] | 0 (Herbicidal ratio of 5% or less (almost no effect)) | – | – | 3 (Herbicidal ratio of 40% or more and less than 70%) | 2 (Herbicidal ratio of 20% or more and less than 40%) | 3 (Herbicidal ratio of 40% or more and less than 70%) | 0 (Herbicidal ratio of 5% or less (almost no effect)) | – | – | – | – | – | – | – | –
CC(C)c1nnc2c(C(=O)Nc3nnnn3Cc3ccc(Cl)cc3)ccc(C(F)(F)F)n12 [2-093] | 2 (Herbicidal ratio of 20% or more and less than 40%) | 2 (Herbicidal ratio of 20% or more and less than 40%) | 3 (Herbicidal ratio of 40% or more and less than 70%) | 5 (Herbicidal ratio of 90% or more (almost completely withered)) | 1 (Herbicidal ratio of 5% or more and less than 20%) | 2 (Herbicidal ratio of 20% or more and less than 40%) | – | 4 (Herbicidal ratio of 70% or more and less than 90%) | – | – | – | – | – | – | –
Cc1nnc(NC(=O)c2ccc(C(F)(F)F)n3c(SCc4ccc(Cl)nc4)nnc23)o1 [1-156] | 0 (Herbicidal ratio of 5% or less (almost no effect)) | 0 (Herbicidal ratio of 5% or less (almost no effect)) | 2 (Herbicidal ratio of 20% or more and less than 40%) | 2 (Herbicidal ratio of 20% or more and less than 40%) | 3 (Herbicidal ratio of 40% or more and less than 70%) | 2 (Herbicidal ratio of 20% or more and less than 40%) | – | 3 (Herbicidal ratio of 40% or more and less than 70%) | – | – | – | – | – | – | –
O=C(Nc1nnco1)c1ccc(C(F)(F)F)n2c(SCc3ccc(Cl)nc3)nnc12 [1-157] | 2 (Herbicidal ratio of 20% or more and less than 40%) | 0 (Herbicidal ratio of 5% or less (almost no effect)) | 0 (Herbicidal ratio of 5% or less (almost no effect)) | 4 (Herbicidal ratio of 70% or more and less than 90%) | 4 (Herbicidal ratio of 70% or more and less than 90%) | 3 (Herbicidal ratio of 40% or more and less than 70%) | – | 1 (Herbicidal ratio of 5% or more and less than 20%) | – | – | – | – | – | – | –
Cc1nnc(NC(=O)c2ccc(C(F)(F)F)n3nc(C(C)C)nc23)o1 [7-001] | – | – | – | – | 1 (Herbicidal ratio of 5% or more and less than 20%) | 2 (Herbicidal ratio of 20% or more and less than 40%) | – | – | 0 (Herbicidal ratio of 5% or less (almost no effect)) | – | – | – | – | – | –
Cn1nnnc1NC(=O)c1ccc(C(F)(F)F)n2c(C=O)nnc12 [2-109] | – | – | – | – | – | – | – | – | – | 0 (Herbicidal ratio of 5% or less (almost no effect)) | 1 (Herbicidal ratio of 5% or more and less than 20%) | 1 (Herbicidal ratio of 5% or more and less than 20%) | 3 (Herbicidal ratio of 40% or more and less than 70%) | 5 (Herbicidal ratio of 90% or more (almost completely withered)) | 2 (Herbicidal ratio of 20% or more and less than 40%)
Cn1nnnc1NC(=O)c1ccc(C(F)(F)F)n2c(CO)nnc12 [2-108] | – | 0 (Herbicidal ratio of 5% or less (almost no effect)) | – | – | 4 (Herbicidal ratio of 70% or more and less than 90%) | 5 (Herbicidal ratio of 90% or more (almost completely withered)) | 4 (Herbicidal ratio of 70% or more and less than 90%) | 1 (Herbicidal ratio of 5% or more and less than 20%) | 0 (Herbicidal ratio of 5% or less (almost no effect)) | – | – | – | – | – | –
C#CCN(C)c1nnc2c(C(=O)Nc3nnnn3C)ccc(C(F)(F)F)n12 [2-094] | 4 (Herbicidal ratio of 70% or more and less than 90%) | 5 (Herbicidal ratio of 90% or more (almost completely withered)) | 4 (Herbicidal ratio of 70% or more and less than 90%) | 5 (Herbicidal ratio of 90% or more (almost completely withered)) | 5 (Herbicidal ratio of 90% or more (almost completely withered)) | 5 (Herbicidal ratio of 90% or more (almost completely withered)) | – | 5 (Herbicidal ratio of 90% or more (almost completely withered)) | – | – | – | – | – | – | –
CCCn1nnnc1NC(=O)c1ccc(C(F)(F)F)n2c(C(C)C)nnc12 [2-090] | 4 (Herbicidal ratio of 70% or more and less than 90%) | 5 (Herbicidal ratio of 90% or more (almost completely withered)) | 4 (Herbicidal ratio of 70% or more and less than 90%) | 5 (Herbicidal ratio of 90% or more (almost completely withered)) | 5 (Herbicidal ratio of 90% or more (almost completely withered)) | 4 (Herbicidal ratio of 70% or more and less than 90%) | – | 5 (Herbicidal ratio of 90% or more (almost completely withered)) | – | – | – | – | – | – | –
COc1ccc(N(C)c2nnc3c(C(=O)Nc4nnco4)ccc(C(F)(F)F)n23)cc1 [1-171] | 1 (Herbicidal ratio of 5% or more and less than 20%) | 4 (Herbicidal ratio of 70% or more and less than 90%) | – | – | 4 (Herbicidal ratio of 70% or more and less than 90%) | 4 (Herbicidal ratio of 70% or more and less than 90%) | 0 (Herbicidal ratio of 5% or less (almost no effect)) | – | – | – | – | – | – | – | –
